Structures are written as SMILES.

D2 receptor, sequence (P14416 whole entry): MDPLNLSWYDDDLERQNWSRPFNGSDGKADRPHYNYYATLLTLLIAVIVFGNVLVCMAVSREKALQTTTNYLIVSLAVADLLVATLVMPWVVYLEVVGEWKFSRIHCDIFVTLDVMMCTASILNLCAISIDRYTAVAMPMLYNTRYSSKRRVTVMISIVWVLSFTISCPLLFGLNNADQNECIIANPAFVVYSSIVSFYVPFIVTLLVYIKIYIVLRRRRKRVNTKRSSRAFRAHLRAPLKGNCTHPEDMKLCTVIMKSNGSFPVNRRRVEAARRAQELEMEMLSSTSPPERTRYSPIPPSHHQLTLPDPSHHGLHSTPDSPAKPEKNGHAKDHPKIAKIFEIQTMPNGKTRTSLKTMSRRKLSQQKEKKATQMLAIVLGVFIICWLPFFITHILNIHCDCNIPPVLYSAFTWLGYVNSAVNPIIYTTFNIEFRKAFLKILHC

The first test concerns the target D2 receptor (Homo sapiens, UniProt P14416). Description: [3H]Thymidine uptake assay for D2 intrinsic activity. The format is cell-based. Particulars: Table 1; test compound 1 μM; 1 μM Quinpirole = 100% intrinsic activity.
Method: D2 intrinsic activity of title compounds of the Examples, below, was determined using the [^3H]thymidine uptake assay described below.
[^3H]Thymidine Uptake Assay for D2 Intrinsic Activity
Cells are serum deprived by washing twice with 200 μl of serum-free media. 90 μl serum-free media was added to each well. The plates ware incubated for two to three hours. 10 μl of serum-containing media, as a positive control, vehicle (serum-free media), negative control (an antagonist) or test compounds and standards (10 μl of a 10 μM solution for a final concentration of 1 μM) in serum-free media were added to wells. The plates are returned to the incubator. Eighteen hours later [^3H]thymidine is added (0.5 μCi/well in 10 μl of serum-free media) and the plates are returned to the incubator. […] The plates are returned to the incubator, once again. One hour later the assay is terminated by rapid filtration through Whatman GF/C glass fiber filters. Filters are washed four times with 500 ml of 50 mM Tris-HCl pH 7.0 buffer, for example, using a Brandel MLR-96T cell harvester. […] Intrinsic activity is defined as total uptake (1 μM Quinpirole) minus serum-free media (no uptake). Test compounds are compared to 1 μM Quinpirole (full DA agonist), which was classified as 100% intrinsic activity.
Regarding `COc1cccc(N2CCN(CCCCOc3ccc4c(n3)NC(=O)CC4)CC2)c1OC` [Example A19, 7-{4-[4-(2,3-Dimethoxy-phenyl)-piperazin-1-yl]-butoxy}-3,4-dihydro-1H-[1,8]naphthyridin-2-one], the Emax (as a rule, the size of the effect at its maximum, as opposed to the concentration needed) at 1 µM came to 10%.

With `O=C1NCc2ccc(OCCCCN3CCN(c4cccc5ccc(F)cc45)CC3)nc2N1` [Example F5, 7-{4-[4-(7-Fluoro-naphthalen-1-yl)-piperazin-1-yl]-butoxy}-3,4-dihydro-1H-pyrido[2,3-d]pyrimidin-2-one], the Emax at 1 µM is 32%.

`O=C1CCc2ccc(OCCCCN3CCN(c4cccc(C(F)(F)F)c4)CC3)nc2N1` [Example A38, 7-{4-[4-(3-Trifluoromethyl-phenyl)-piperazin-1-yl]-butoxy}-3,4-dihydro-1H-[1,8]naphthyridin-2-one]: the maximal response (Emax) at 1 µM stood at 23%. Same read-out and setting: next, `O=C1CCc2ccc(OCCCCN3CCN(c4ccccn4)CC3)nc2N1` [Example A43, 7-[4-(4-Pyridin-2-yl-piperazin-1-yl)-butoxy]-3,4-dihydro-1H-[1,8]naphthyridin-2-one]: 75%.

`CN1Cc2ccc(OCCCCN3CCN(c4cccc(Cl)c4Cl)CC3)nc2NC1=O` [Example F7, 7-{4-[4-(2,3-Dichloro-phenyl)-piperazin-1-yl]-butoxy}-3-methyl-3,4-dihydro-1H-pyrido[2,3-d]pyrimidin-2-one] yielded an Emax at 1 µM of 11%.

As to `O=C1CCc2ccc(OCCCCN3CCN(c4ccc(F)cc4)CC3)nc2N1` [Example A40, 7-{4-[4-(4-Fluoro-phenyl)-piperazin-1-yl]-butoxy}-3,4-dihydro-1H-[1,8]naphthyridin-2-one], the Emax at 1 µM was 32%. Still for that read-out and setting: next, `COc1ccc2cccc(N3CCN(CCCCOc4nc(C)c5ccc(=O)[nH]c5n4)CC3)c2c1` [Example H11, 2-{4-[4-(7-Methoxy-naphthalen-1-yl)-piperazin-1-yl]-butoxy}-4-methyl-8H-pyrido[2,3-d]pyrimidin-7-one]: 23%; `O=c1ccc2ccc(OCCCCN3CCN(c4cccc5c4CCCC5)CC3)nc2[nH]1` [Example B33, 7-{4-[4-(5,6,7,8-Tetrahydro-naphthalen-1-yl)-piperazin-1-yl]-butoxy}-1H-[1,8]naphthyridin-2-one]: 26%.

For the compound `O=C1CCCc2cccc(N3CCN(CCCCOc4ccc5ccc(=O)[nH]c5n4)CC3)c21` [Example B35, 7-{4-[4-(8-Oxo-5,6,7,8-tetrahydro-naphthalen-1-yl)-piperazin-1-yl]-butoxy}-1H-[1,8]naphthyridin-2-one], the Emax at 1 µM is 20%. `O=c1ccc2ccc(OCCCCN3CCN(c4ccc(F)c5ccccc45)CC3)nc2[nH]1` [Example B52, 7-{4-[4-(4-Fluoro-naphthalen-1-yl)-piperazin-1-yl]-butoxy}-1H-[1,8]naphthyridin-2-one] gave an Emax at 1 µM of 17%.

As for `O=C1CCc2cccc(N3CCN(CCCCOc4ccc5ccc(=O)[nH]c5n4)CC3)c2C1` [Example B40, 7-{4-[4-(7-Oxo-5,6,7,8-tetrahydro-naphthalen-1-yl)-piperazin-1-yl]-butoxy}-1H-[1,8]naphthyridin-2-one], the Emax at 1 µM was 36%. Turning to `CCc1cccc(N2CCN(CCCCOc3ccc4c(n3)NC(=O)CC4)CC2)c1` [Example A16, 7-{4-[4-(3-Ethyl-phenyl)-piperazin-1-yl]-butoxy}-3,4-dihydro-1H-[1,8]naphthyridin-2-one], the Emax at 1 µM stood at 16%. Same read-out and setting: for `CC(C)Oc1ccccc1N1CCN(CCCCOc2ncc3ccc(=O)[nH]c3n2)CC1` [Example H2, 2-{4-[4-(2-Isopropoxy-phenyl)-piperazin-1-yl]-butoxy}-8H-pyrido[2,3-d]pyrimidin-7-one] the value was 22%; for `O=C1CCc2c(C(F)(F)F)cc(OCCCCN3CCN(c4cccc5ccccc45)CC3)nc2N1` [Example E14, 7-[4-(4-Naphthalen-1-yl-piperazin-1-yl)-butoxy]-5-trifluoromethyl-3,4-dihydro-1H-[1,8]naphthyridin-2-one], 36%. Take `O=c1ccc2ccc(OCCCCN3CCN(c4cccc5c(Cl)cccc45)CC3)nc2[nH]1` [Example B58, 7-{4-[4-(5-Chloro-naphthalen-1-yl)-piperazin-1-yl]-butoxy}-1H-[1,8]naphthyridin-2-one]: the Emax at 1 µM was determined as 42%.

In the case of `CC1Cc2ccc(OCCCCN3CCN(c4cccc(Cl)c4Cl)CC3)nc2NC1=O` (single isomer, unassigned) [Example D6a, 7-{4-[4-(2,3-Dichloro-phenyl)-piperazin-1-yl]-butoxy}-3-methyl-3,4-dihydro-1H-[1,8]naphthyridin-2-one], the Emax at 1 µM amounted to 17%. `CC1(C)CC(=O)Nc2nc(OCCCCN3CCN(c4cccc5c4CCC5)CC3)ccc21` [Example D19, 7-[4-(4-Indan-4-yl-piperazin-1-yl)-butoxy]-4,4-dimethyl-3,4-dihydro-1H-[1,8]naphthyridin-2-one] returned an Emax at 1 µM of 39%. On the same count and under the same terms, for `O=C1CCc2cnc(OCCCCN3CCN(c4cccc5ccccc45)CC3)c(Br)c2N1` [Example I7, 8-Bromo-7-[4-(4-naphthalen-1-yl-piperazin-1-yl)-butoxy]-3,4-dihydro-1H-[1,6]naphthyridin-2-one] the value was 37%; for `CCc1cccc(N2CCN(CCCCCc3ccc4c(n3)NC(=O)CC4)CC2)n1` [Example C17, 7-{5-[4-(6-Ethyl-pyridin-2-yl)-piperazin-1-yl]-pentyl}-3,4-dihydro-1H-[1,8]naphthyridin-2-one], 21%; for `Cc1cccc(N2CCN(CCCCOc3ccc4c(n3)NC(=O)CC4(C)C)CC2)c1Cl` [Example D20, 7-{4-[4-(2-Chloro-3-methyl-phenyl)-piperazin-1-yl]-butoxy}-4,4-dimethyl-3,4-dihydro-1H-[1,8]naphthyridin-2-one], 44%. As to `O=c1ccc2ccc(OCCCCN3CCN(c4ncccn4)CC3)nc2[nH]1` [Example B30, 7-[4-(4-Pyrimidin-2-yl-piperazin-1-yl)-butoxy]-1H-[1,8]naphthyridin-2-one], the Emax at 1 µM turned out to be 83%.

Staying with this test, now noted: Table 2; test compound 1 μM; 1 μM Quinpirole = 100% intrinsic activity.
`CC1C=Cc2cccc(N3CCN(CCCCOc4ccc5c(n4)NC(=O)CC5)CC3)c2O1` (centres unmarked) [Example A9′, 7-{4-[4-(2-Methyl-2H-chromen-8-yl)-piperazin-1-yl]-butoxy}-3,4-dihydro-1H-[1,8]naphthyridin-2-one] returned an Emax at 1 µM of 30%. As for `O=C1CCc2ccc(OCCCCN3CCN(c4cccc5c4OC(F)(F)O5)CC3)nc2N1` [Example A19′, 7-{4-[4-(2,2-Difluoro-benzo[1,3]dioxol-4-yl)-piperazin-1-yl]-butoxy}-3,4-dihydro-1H-[1,8]naphthyridin-2-one], the maximum response (Emax) at 1 µM was 40%. Still for that read-out and setting: next, `CC1(C)CC(=O)Nc2nc(OCCCCN3CCN(c4cccc5cccnc45)CC3)ccc21` [Example C1′, 4,4-Dimethyl-7-[4-(4-quinolin-8-yl-piperazin-1-yl)-butoxy]-3,4-dihydro-1H-[1,8]naphthyridin-2-one]: 38%; `COc1ccc2c(N3CCN(CCCCOc4ccc5c(n4)NC(=O)CC5)CC3)cccc2n1` [Example A43′, 7-{4-[4-(2-Methoxy-quinolin-5-yl)-piperazin-1-yl]-butoxy}-3,4-dihydro-1H-[1,8]naphthyridin-2-one]: 32%. As for `CC1(C)COc2c(cccc2N2CCN(CCCCOc3ccc4c(n3)NC(=O)CC4)CC2)C1=O` [Example A21′, 7-{4-[4-(3,3-Dimethyl-4-oxo-chroman-8-yl)-piperazin-1-yl]-butoxy}-3,4-dihydro-1H-[1,8]naphthyridin-2-one], the Emax at 1 µM came to 24%. `O=C1CCc2ccc(OCCCCN3CCN(c4cccc5ncccc45)CC3)nc2N1` [Example A35′, 7-[4-(4-Quinolin-5-yl-piperazin-1-yl)-butoxy]-3,4-dihydro-1H-[1,8]naphthyridin-2-one] had an Emax at 1 µM of 20%. Same read-out and setting: next, `COc1ccc2cccc(N3CCN(CCCCOc4ccc5ccc(=O)[nH]c5n4)CC3)c2n1` [Example B30′, 7-{4-[4-(2-Methoxy-quinolin-8-yl)-piperazin-1-yl]-butoxy}-1H-[1,8]naphthyridin-2-one]: 42%. `O=C1CCc2cnc(OCCCCN3CCN(c4cccc5c4OCCO5)CC3)cc2N1` [Example H5′, 7-{4-[4-(2,3-Dihydro-benzo[1,4]dioxin-5-yl)-piperazin-1-yl]-butoxy}-3,4-dihydro-1H-[1,6]naphthyridin-2-one] returned an Emax at 1 µM of 14%. Same read-out and setting: for `COc1ccc2cccc(N3CCN(CCCCOc4ccc5c(n4)NC(=O)CC5)CC3)c2n1` [Example A41′, 7-{4-[4-(2-Methoxy-quinolin-8-yl)-piperazin-1-yl]-butoxy}-3,4-dihydro-1H-[1,8]naphthyridin-2-one] the value was 32%; for `O=c1ccc2cnc(OCCCCN3CCN(c4cccc5cccnc45)CC3)nc2[nH]1` [Example G3′, 2-[4-(4-Quinolin-8-yl-piperazin-1-yl)-butoxy]-8H-pyrido[2,3-d]pyrimidin-7-one], 28%; for `O=C1CCc2ccc(OCCCCN3CCN(c4cccc5c4OC4(CCCC4)CC5)CC3)nc2N1` [Example A8′, 7-{4-[4-(3,4-Dihydrospiro[chromene-2,1′-cyclopentan]-8-yl)-piperazin-1-yl]-butoxy}-3,4-dihydro-1H-[1,8]naphthyridin-2-one], 30%.

The compound `Cc1nc(OCCCCN2CCN(c3cccc4c3OCC4)CC2)nc2[nH]c(=O)ccc12` [Example G11′, 2-{4-[4-(2,3-Dihydro-benzofuran-7-yl)-piperazin-1-yl]-butoxy}-4-methyl-8H-pyrido[2,3-d]pyrimidin-7-one] gave an Emax at 1 µM of 39%.

`CN1C(=O)CCc2cccc(N3CCN(CCCCOc4ccc5c(n4)NC(=O)CC5)CC3)c21` [Example A49′, 7-{4-[4-(1-Methyl-2-oxo-1,2,3,4-tetrahydro-quinolin-8-yl)-piperazin-1-yl]-butoxy}-3,4-dihydro-1H-[1,8]naphthyridin-2-one] yielded an Emax at 1 µM of 38%. Same read-out and setting: next, `O=c1ccc2cnc(OCCCCN3CCN(c4cccc5c4OCCC5)CC3)cc2[nH]1` [Example H8′, 7-[4-(4-Chroman-8-yl-piperazin-1-yl)-butoxy]-1H-[1,6]naphthyridin-2-one]: 32%.

Values taken from US7160888B2, “[1,8]naphthyridin-2-ones and related compounds for the treatment of schizophrenia” (Warner Lambert Company LLC, priority 2003, dated 2007).
